Here are results for 3 molecules from publication PMC5700923, “Second messenger analogues highlight unexpected substrate sensitivity of CD38: total synthesis of the hybrid “L-cyclic inosine 5′-diphosphate ribose”” (Scientific Reports, 2017).

Structures are written as SMILES.

Assay [1] has as its target T1, CD38 (shCD38) (Homo sapiens, UniProt P28907).
T1 construct: human CD38 catalytic domain (shCD38)
T1 sequence (P28907 45-300 limits assumed): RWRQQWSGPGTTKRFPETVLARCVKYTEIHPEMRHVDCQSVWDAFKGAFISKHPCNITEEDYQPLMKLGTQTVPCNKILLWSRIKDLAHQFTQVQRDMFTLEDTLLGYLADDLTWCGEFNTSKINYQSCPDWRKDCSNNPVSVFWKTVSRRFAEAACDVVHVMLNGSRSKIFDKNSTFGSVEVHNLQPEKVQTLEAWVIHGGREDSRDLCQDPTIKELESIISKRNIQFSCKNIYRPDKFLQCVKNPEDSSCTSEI
Put plainly: inhibition of cADPR hydrolysis, fluorimetric cycling assay; also hydrolysed by shCD38 (RP-HPLC). It is filed as biochemical. As to conditions: read-out: L-Ribose / IC50.

In assay [2] the target is T1, CD38 (shCD38). As to the kind of experiment: inhibition of cADPR hydrolysis, fluorimetric cycling assay. It is filed as biochemical. As to conditions: read-out: L-Ribose / IC50.
The next assay has as its target T2, Aplysia cyclase (Aplysia californica, UniProt P29241).
T2 construct: wild-type
T2 sequence (P29241 25-282): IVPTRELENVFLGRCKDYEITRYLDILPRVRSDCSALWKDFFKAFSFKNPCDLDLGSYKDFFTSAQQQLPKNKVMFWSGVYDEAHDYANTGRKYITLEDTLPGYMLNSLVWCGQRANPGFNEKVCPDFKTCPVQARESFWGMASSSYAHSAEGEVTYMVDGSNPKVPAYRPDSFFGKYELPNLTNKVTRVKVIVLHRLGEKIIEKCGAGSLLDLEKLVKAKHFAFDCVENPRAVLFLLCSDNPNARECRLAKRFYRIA
Put plainly: X-ray crystallography, […] cIDPR (authors' unpublished data, Supplementary Figure S2). The format is binding.

As for `O=c1c2ncn3c2ncn1[C@H]1O[C@@H](COP(=O)(O)OP(=O)(O)OC[C@H]2O[C@@H]3[C@H](O)[C@@H]2O)[C@H](O)[C@@H]1O` [compound 5, L-cIDPR], the IC50 at CD38 (shCD38) [1] stood at 526 ± 36 µM.
On to `Nc1nc2c(=O)n3cnc2n1[C@@H]1O[C@H](COP(=O)(O)OP(=O)(O)OC[C@@H]2O[C@H]3[C@@H](O)[C@H]2O)[C@@H](O)[C@H]1O` [compound 7, 8-NH2-L-cIDPR], for which, on CD38 (shCD38) [2], the IC50 is 21 ± 2 µM.
Regarding `O=c1c2ncn3c2ncn1[C@@H]1O[C@H](COP(=O)(O)OP(=O)(O)OC[C@H]2O[C@@H]3[C@H](O)[C@@H]2O)[C@@H](O)[C@H]1O` [compound 2, cIDPR], the “ligand species seen in crystal structure” value at Aplysia cyclase was “both linear IDPR and the cyclic N1-cIDPR are present and close to each other, with cIDPR in an upside-down orientation”.
